Results: patent US6849576B2, “Plant-activating agent” (Kao Corporation, priority 2000, dated 2005)

Columns and labels:
[1] = system: Chlorella vulgaris; assay: Reproduction of green cells: chlorella cultivation, cell count at 8th day; format: cell-based; conditions: chlorella cell number at 8th day (192 hours), relative value, control area = 100
Description: (§1) In case of a unicellular organism, an individual of this organism can be used itself as a green cell. […] When chlorella is used, a test substance acting as a plant-activating agent is added to an inorganic salt medium for chlorella (test area), and the number of cells (cells/ml) when cultivation is conducted for a certain period can be compared with the number of cells (cells/ml) in the non-added system cultivated under the same condition (control area), for calculation. Further, cells in the form of callus can also be used. As the callus, a liverwort (Harchantia polymorpha L.) callus may be exemplified. When a callus is used, the test substance acting as a plant-activating agent is added to e.g. a sterilized medium for calluses (test area), and the weight of callus when cultivation is conducted for a certain period can be compared with the weight of callus of the non-added system cultivated under the same condition (control area), for calculation. In any case, the concentration of the test substance in the test area is not limited but suitably from 0.1 to 1000 ppm in terms of effective components.
Herein, the substance acting as the plant-activating agent has been added in a concentration of 10 ppm in terms of effective components into a culturing solution in the test area. This substance is not added into the control area. After sterilization, the temperature of the medium is returned to a normal temperature. The number of Chlorella vulgaris which has been sub-cultivated previously is counted under a microscope using a blood cell counting chamber of Thoma, and chlorella is added to the sterilized medium so as to have a concentration of 1.0×10^5 (cells/ml). These operations are conducted in a clean bench when the sterilized condition is necessary. Cultivation is carried out in a shaking incubator rotating at 110 rpm at 23° C. under continuous illumination (with illuminance of 10 klx.) with carbon dioxide and humidity under natural conditions.
This measurement is repeated five times in each area, and the average values (P0, P1) are made as the number of chlorella after cultivation.

[2] = system: liverwort callus cells; assay: Reproduction of green cells: liverwort callus cultivation, fresh weight at 10th day; format: cell-based, liverwort (Harchantia polymorpha L.); conditions: liverwort callus fresh weight at 10th day (240 hours); relative value, control area = 100; concentrations (ppm) as in Table 7
Description: as §1
100 ml of the medium (MSK2 medium) for liverworts were placed into a 500-ml Erlenmeyer flask, and the flask was capped with a silicon cap having its ventilative property and placed into an autoclave (at a high temperature, under a high pressure, and a sterilized oven) to sterilize the medium (for 20 minutes). Herein, the substance acting as the plant-activating agent was added in a concentration shown in Table 7 into a culturing solution in the test area. After sterilization, the temperature of the medium was returned to a normal temperature. 2 ml of liverwort callus cells under a steady state, which had been sub-cultivated previously, were sucked up by a 2-ml Komagome pipette (measuring pipet) and incubated to the sterilized medium. These operations are conducted in a clean bench when sterilized condition is necessary. Cultivation is carried out in a shaking incubator rotating at 110 rpm at 23° C. under continuous illumination (with illuminance of 10 klx.) with carbon dioxide and humidity under natural conditions. Tenth day (after 240 hours) after starting the cultivation, the whole culturing solution in each area was filtrated under suction, and the fresh weight (raw weight) (g) of the callus cell was measured. This was made as the amount in reproduction of green cells, and the improved degree in reproduction of green cells was measured by the above-described formula.

[3] = concentrations (ppm) as in Table 1
[4] = concentrations (ppm) as in Table 2

O=C([O-])CCC(=O)[O-].[Na+].[Na+] [Comparative product 1-2, Sodium succinate, reference compound]
Improved degree in reproduction of green cells [1, 3]: 90

O=C([O-])CN(CCN(CC(=O)[O-])CC(=O)[O-])CC(=O)[O-].[Na+].[Na+].[Na+].[Na+] [Comparative product 1-3, EDTA-4Na, reference compound]
Improved degree in reproduction of green cells [1, 3]: 92

O=C([O-])CCC(=O)[O-].[Na+].[Na+] [Comparative product 2-2, Sodium succinate, reference compound]
Improved degree in reproduction of green cells [1, 4]: 92

O=C([O-])CN(CCN(CC(=O)[O-])CC(=O)[O-])CC(=O)[O-].[Na+].[Na+].[Na+].[Na+] [Comparative product 2-3, EDTA-4Na, reference compound]
Improved degree in reproduction of green cells [1, 4]: 90

Cc1ncc(CO)c(CO)c1O [Inventive product 1-18, Vitamin B6]
Improved degree in reproduction of green cells [1, 3]: 118

CCCCCCCCCCCCCCCCCC(=O)O [Inventive product 2-1, Stearyl acid]
Improved degree in reproduction of green cells [1, 4]: 156

Cc1ncc(CO)c(CO)c1O [Inventive product 2-16, Vitamin B6]
Improved degree in reproduction of green cells [1, 4]: 122

CCCCCCCCCCCCCCCCCCO [Inventive product 5-5, Stearyl alcohol]
Improved degree in reproduction of green cells [2]: 140

CCCCCCCC/C=C\CCCCCCCCNC(=O)CC(O)(CC(=O)O)C(=O)O (stereo not drawn) [Inventive product 5-8, Citric acid oleyl amide]
Improved degree in reproduction of green cells [2]: 125

CCCCCCCCCCCCCCCCCCOCCCCCCCCCCCCCCCCCC [Inventive product 5-9, Distearyl ether]
Improved degree in reproduction of green cells [2]: 135

CCCCCCCCCCCCCCCCCCOC(=O)CCCCCCCCCCCCCCCCC [Inventive product 5-10, Stearyl sterate]
Improved degree in reproduction of green cells [2]: 125

CCCCCCCCCCCCCCCCCC(=O)OCC(CO)(CO)CO [Inventive product 5-14, Pentaerythritol monostearate]
Improved degree in reproduction of green cells [2]: 108

CCCCCCCCCCCCCCCCCCOC(=O)C(O)CO (stereo not drawn) [Inventive product 5-17, Glyceric acid stearyl ester]
Improved degree in reproduction of green cells [2]: 108

Cc1ncc(CO)c(CO)c1O [Inventive product 5-18, Vitamin B6]
Improved degree in reproduction of green cells [2]: 107

CC(C)C[C@H](N)C(=O)O [Inventive product 5-20, L-leucine]
Improved degree in reproduction of green cells [2]: 110

O=C(O)C(O)C(O)C(=O)O (stereo not drawn) [Inventive product 5-21, Tartaric acid]
Improved degree in reproduction of green cells [2]: 110

O=C(O)CCCC[C@@H]1SC[C@@H]2NC(=O)N[C@@H]21 [Inventive product 5-24, Biotin]
Improved degree in reproduction of green cells [2]: 106

Citric acid monooleyl axnide [Inventive product 1-8]
Improved degree in reproduction of green cells [1, 3]: 148

Citric acid monostearate [Inventive product 5-7]
Improved degree in reproduction of green cells [2]: 135

POE(1) stearyl ether [Inventive product 1-11]
Improved degree in reproduction of green cells [1, 3]: 160

POE(1) stearyl ether [Inventive product 2-9]
Improved degree in reproduction of green cells [1, 4]: 153

POE(1) stearyl ether [Inventive product 5-11]
Improved degree in reproduction of green cells [2]: 133

POE(20) sorbitan oleate [Comparative product 1-1, reference compound]
Improved degree in reproduction of green cells [1, 3]: 85

POE(20) sorbitan oleate [Comparative product 2-1, reference compound]
Improved degree in reproduction of green cells [1, 4]: 80

POE(20) sorbitan oleate [Comparative product 5-1, reference compound]
Improved degree in reproduction of green cells [2]: 72

Stearic acid diglyceride [Inventive product 1-13]
Improved degree in reproduction of green cells [1, 3]: 140

Stearic acid diglyceride [Inventive product 2-11]
Improved degree in reproduction of green cells [1, 4]: 136

Stearic acid diglyceride [Inventive product 5-13]
Improved degree in reproduction of green cells [2]: 126

Stearic acid monoglyceride [Inventive product 1-23]
Improved degree in reproduction of green cells [1, 3]: 140

Stearic acid monoglyceride [Inventive product 5-23]
Improved degree in reproduction of green cells [2]: 118

Vitamin B12 [Inventive product 1-19]
Improved degree in reproduction of green cells [1, 3]: 110

Vitamin B12 [Inventive product 2-17]
Improved degree in reproduction of green cells [1, 4]: 118

Vitamin B12 [Inventive product 5-19]
Improved degree in reproduction of green cells [2]: 108
